Experiments:
[1] = system: human iPS cells (1231A3 strain); test: Microscopic observation of collapse of cell aggregates from human iPS cells (Example 2); format: cell-based; settings: 10 days after start of suspension culture, FIG. 2
Description: (§1) iPS cells derived from human peripheral blood derived-mononuclear cells established from ePMBC (registered trade mark) of Cellular Technology Limited (1231A3 strain, Kyoto University) were used. Undifferentiated maintenance culture of these iPS cells under feeder cell-free conditions was performed according to the method described in “Nakagawa, M. et. al., Sci. Rep. 2014 Jan. 8; 4: 3594”. As the medium, “StemFit (registered trade mark)” AK03 medium (Ajinomoto Co., Inc.) was used and iMatrix-511 (Nippi) was used as a culture substrate.
Production of retinal tissue including a step of culturing in a medium containing an MEK inhibitor, a PKC inhibitor or a Sonic hedgehog signal transduction pathway activating substance was performed as follows. Human iPS cells under culture for maintaining an undifferentiated state were treated with 0.5×TrypLE select (mixture of equal amounts of TrypLE select (Life Technologies) and 0.5 mM EDTA/PBS(−)), scraped using a cell scraper, dispersed to single cells by pipetting, seeded in a 6-well culture plate coated with iMatrix-511 (0.5 μg/cm^2) at 1.2×10^4 cells per 1 well, and cultured in a StemFit medium containing Y-27632 (Wako Pure Chemical Industries, Ltd.) (final concentration 10 μM) as a ROCK inhibitor under 37° C., 5% CO2 conditions. At 2 days after the seeding, PD0325901 (SIGMA) (final concentration 1 μM) as an MEK inhibitor and Go6983 (SIGMA) (final concentration 2 μM) as a PKC inhibitor were added and the mixture was cultured for 5 days, or at 6 days after seeding, PD0325901 (final concentration 1 μM) was added and the mixture was cultured for […] (completion of step 1). The cells cultured in the medium containing the above-mentioned inhibitors were treated with 0.5×TrypLE select, scraped using a cell scraper, dispersed to single cells by pipetting, seeded in a 96-well culture plate (PrimeSurface 96 V-BOTTOM plate, SUMITOMO BAKELITE CO., LTD.) at 1.0×10^4 cells per 1 well, and cultured in 100 μl of a gfCDM+KSR medium [45% IMDM (Life Technologies), 45% F12 (Life Technologies), 10% KSR (Life Technologies), 1% Chemically defined lipid concentrate (Life Technologies), 450 μM 1-Thioglycerol (SIGMA)] supplemented with Y-27632 (final concentration 20 μM) (second step SAG(−)) or seeded in a gfCDM+KSR medium supplemented with SAG (Enzo) (final concentration 30 nM) (second step SAG(+)) and cultured in suspension under 37° C., 5% CO2 conditions. Cell aggregates were formed by 2 days after the start of the suspension culture (completion of step 2). […]

[2] = system: human iPS cells (1231A3 strain); test: Pax6 and Chx10 immunostaining of cell aggregates from human iPS cells (Example 2); format: cell-based; settings: first step MEK inhibitor ± PKC inhibitor; second step with 30 nM SAG; BMP4 1.5 nM from day 3; 22 days after start of suspension culture; FIG. 3
Description: as §1
Production of retinal tissue including a step of culturing in a medium containing an MEK inhibitor, a PKC inhibitor or a Sonic hedgehog signal transduction pathway activating substance was performed as follows. Human iPS cells under culture for maintaining an undifferentiated state were treated with 0.5×TrypLE select (mixture of equal amounts of TrypLE select (Life Technologies) and 0.5 mM EDTA/PBS(−)), scraped using a cell scraper, dispersed to single cells by pipetting, seeded in a 6-well culture plate coated with iMatrix-511 (0.5 μg/cm^2) at 1.2×10^4 cells per 1 well, and cultured in a StemFit medium containing Y-27632 (Wako Pure Chemical Industries, Ltd.) (final concentration 10 μM) as a ROCK inhibitor under 37° C., 5% CO2 conditions. […]

SMILES: CNC1CCC(N(Cc2cccc(-c3ccncc3)c2)C(=O)c2sc3ccccc3c2Cl)CC1 (centres unmarked) [SAG, N-methyl-N′-(3-pyridinylbenzyl)-N′-(3-chlorobenzo[b]thiophene-2-carbonyl)-1,4-diaminocyclohexane]
- collapse of aggregates ([1]; non-treatment in first step, second step SAG(+) (30 nM SAG)): collapse of aggregates was hardly observed

SMILES: O=C(NOC[C@H](O)CO)c1ccc(F)c(F)c1Nc1ccc(I)cc1F [PD0325901]
- Pax6, Chx10 (retinal progenitor cell markers) co-positive cells in cell aggregates [2]: Pax6, Chx10 co-positive cells were confirmed
- collapse of aggregates ([1]; 1-day treatment in first step (1 μM), second step SAG(+) (30 nM SAG)): collapse of aggregates was hardly observed
- collapse of aggregates ([1]; 1-day treatment in first step (1 μM), second step SAG(−)): collapse of aggregates was observed
- collapse of aggregates ([1]; 5-day treatment in first step (PD0325901 1 μM, Go6983 2 μM), irrespective of presence or absence of SAG in second step): Collapse of aggregates was not observed
